Test results from ChEMBL document CHEMBL4296182, “CO-ADD screening of NIH NCI Diversity Set V”.
Values after ≈ are worked out from the molar mass of the structure shown.

How the values were obtained:
Candida albicans = experiment: microbe, parasite or virus in culture; details: ATCC 90028, ASSAY_TEST Inhibition of Fungal Growth, detection method Absorption (OD530), plate type 384well, NBS, CORNING #3640
Description: Antifungal activity against Candida albicans ATCC 90028 (CO-ADD:FG_001); MIC in YNB media using NBS plates, by OD630

Acinetobacter baumannii = experiment: microbe, parasite or virus in culture; details: ATCC 19606, 18 h, ASSAY_TEST Inhibition of Bacterial Growth, detection method Absorption (OD600), MEDIA CAMHB, plate type 384well, NBS, CORNING #3640
Description: Antibacterial activity against Acinetobacter baumannii ATCC 19606 (CO-ADD:GN_034); MIC in CAMBH media using NBS plates, by OD600

HEK293 = experiment: cells; assay type: functional; details: Homo sapiens, ATCC CRL1573, HEK293; ASSAY_TEST Inhibition of Cell Viability; detection method Resazurin; Fluorescence (ex560/em590); MEDIA DMEM with 10% FBS; plate type 384well; TC; CORNING #3712; time 18 hr
Escherichia coli = experiment: microbe, parasite or virus in culture; details: ATCC 25922, 18 h, ASSAY_TEST Inhibition of Bacterial Growth, detection method Absorption (OD600), MEDIA CAMHB, plate type 384well, NBS, CORNING #3640
Description: Antibacterial activity against Escherichia coli ATCC 25922 (CO-ADD:GN_001); MIC in CAMBH media using NBS plates, by OD(600)

Staphylococcus aureus = experiment: microbe, parasite or virus in culture; details: ATCC 43300, 18 h, ASSAY_TEST Inhibition of Bacterial Growth, detection method Absorption (OD600), MEDIA CAMHB, plate type 384well, NBS, CORNING #3640
Description: Antibacterial activity against Staphylococcus aureus MRSA ATCC 43300 (CO-ADD:GP_020); MIC in CAMBH media, using NBS plates, by OD(600)

Pseudomonas aeruginosa = experiment: microbe, parasite or virus in culture; details: ATCC 27853, 18 h, ASSAY_TEST Inhibition of Bacterial Growth, detection method Absorption (OD600), MEDIA CAMHB, plate type 384well, NBS, CORNING #3640
Description: Antibacterial activity against Pseudomonas aeruginosa ATCC 27853 (CO-ADD:GN_042); MIC in CAMBH media using NBS plates, by OD(600)

Klebsiella pneumoniae = experiment: microbe, parasite or virus in culture; details: ATCC 700603, 18 h, ASSAY_TEST Inhibition of Bacterial Growth, detection method Absorption (OD600), MEDIA CAMHB, plate type 384well, NBS, CORNING #3640
Description: Antibacterial activity against Klebsiella pneumoniae MDR ATCC 70063 (CO-ADD:GN_003); MIC in CAMBH media using NBS plates, by OD(600)

Description for Cryptococcus neoformans: Antifungal activity against Cryptococcus neoformans H99 ATCC 208821 (CO-ADD:FG_002); MIC in YNB media using NBS plates, by Resazurin OD(600-570)

`O=C(Nc1ccc(Nc2ccncc2)cc1)c1ccc(Nc2ccnc3ccc([N+](=O)[O-])cc23)cc1[N+](=O)[O-]` gave an MIC (Candida albicans) of over 10 µM, an MIC (Acinetobacter baumannii) of over 10 µM and a CC50 (HEK293) of over 10 µM. It also gave an MIC (Escherichia coli) of over 10 µM, an MIC (Staphylococcus aureus) of over 10 µM and an MIC (Cryptococcus neoformans) of over 10 µM. The MIC (Pseudomonas aeruginosa) was over 10 µM and the MIC (Klebsiella pneumoniae) was over 10 µM.
With `COC(=O)N1C2CCCCC2=NN(c2ccccc2)N1C(=O)OC` (stereo unspecified) the MIC (Candida albicans) was over 10 µM, the MIC (Acinetobacter baumannii) was over 10 µM and the CC50 (HEK293) was over 10 µM. It also gave an MIC (Escherichia coli) of over 10 µM, an MIC (Staphylococcus aureus) of over 10 µM and an MIC (Cryptococcus neoformans) of over 10 µM. For the same compound, the MIC (Pseudomonas aeruginosa) was over 10 µM and the MIC (Klebsiella pneumoniae) was over 10 µM.
Compound `O=C(Nc1ccccc1)C1=C(Nc2ccccc2)CSC1` has an MIC (Candida albicans) of over 10 µM, an MIC (Acinetobacter baumannii) of over 10 µM and a CC50 (HEK293) of over 10 µM. For the same compound, the MIC (Escherichia coli) was over 10 µM, the MIC (Staphylococcus aureus) was over 10 µM and the MIC (Cryptococcus neoformans) was over 10 µM. It also gave an MIC (Pseudomonas aeruginosa) of over 10 µM and an MIC (Klebsiella pneumoniae) of over 10 µM.
With `CCCCOc1ccc(/N=N\c2ccc(N)nc2N)cn1` the MIC (Candida albicans) was over 10 µM, the MIC (Acinetobacter baumannii) was over 10 µM and the CC50 (HEK293) was over 10 µM. For the same compound, the MIC (Escherichia coli) was over 10 µM, the MIC (Staphylococcus aureus) was over 10 µM and the MIC (Cryptococcus neoformans) was over 10 µM. For the same compound, the MIC (Pseudomonas aeruginosa) was over 10 µM and the MIC (Klebsiella pneumoniae) was over 10 µM.
With `Cc1c(-c2ccccc2)n(O)[n+]([O-])c1-c1ccccc1` the MIC (Candida albicans) was over 10 µM, the MIC (Acinetobacter baumannii) was over 10 µM and the CC50 (HEK293) was over 10 µM. For the same compound, the MIC (Escherichia coli) was over 10 µM, the MIC (Staphylococcus aureus) was over 10 µM and the MIC (Cryptococcus neoformans) was over 10 µM. It also gave an MIC (Pseudomonas aeruginosa) of over 10 µM and an MIC (Klebsiella pneumoniae) of over 10 µM.
For `N=C(Nc1nc(-c2ccccn2)cc2ccccc12)c1ccccn1`, the MIC (Candida albicans) was 5 µM (≈ 1.63 µg/mL), the MIC (Acinetobacter baumannii) was over 10 µM and the CC50 (HEK293) was over 10 µM. It also gave an MIC (Escherichia coli) of over 10 µM, an MIC (Staphylococcus aureus) of over 10 µM and an MIC (Cryptococcus neoformans) of 10 µM (≈ 3.25 µg/mL). The MIC (Pseudomonas aeruginosa) was over 10 µM and the MIC (Klebsiella pneumoniae) was over 10 µM.
`Cc1c(N2CCCC2)cc2c(c1NC(=O)c1ccccc1Cl)C(C)(C)CC2(C)C` showed an MIC (Candida albicans) of over 10 µM, an MIC (Acinetobacter baumannii) of over 10 µM and a CC50 (HEK293) of over 10 µM. For the same compound, the MIC (Escherichia coli) was over 10 µM, the MIC (Staphylococcus aureus) was over 10 µM and the MIC (Cryptococcus neoformans) was over 10 µM. The MIC (Pseudomonas aeruginosa) was over 10 µM and the MIC (Klebsiella pneumoniae) was over 10 µM.
`CC1(C)CC(=O)CC(C)(C)N1O` gave an MIC (Candida albicans) of over 10 µM, an MIC (Acinetobacter baumannii) of over 10 µM and a CC50 (HEK293) of over 10 µM. The MIC (Escherichia coli) was over 10 µM, the MIC (Staphylococcus aureus) was over 10 µM and the MIC (Cryptococcus neoformans) was over 10 µM. It also gave an MIC (Pseudomonas aeruginosa) of over 10 µM and an MIC (Klebsiella pneumoniae) of over 10 µM.
Work on `Sc1nc2ccc(Cl)cc2s1` yielded an MIC (Candida albicans) of 10 µM (≈ 2.02 µg/mL), an MIC (Acinetobacter baumannii) of over 10 µM and a CC50 (HEK293) of over 10 µM. For the same compound, the MIC (Escherichia coli) was over 10 µM, the MIC (Staphylococcus aureus) was over 10 µM and the MIC (Cryptococcus neoformans) was over 10 µM. The MIC (Pseudomonas aeruginosa) was over 10 µM and the MIC (Klebsiella pneumoniae) was over 10 µM.
`Cc1cc2cc3c(O)nc(O)nc3nc2cc1C` showed an MIC (Candida albicans) of over 10 µM, an MIC (Acinetobacter baumannii) of over 10 µM and a CC50 (HEK293) of over 10 µM. For the same compound, the MIC (Escherichia coli) was over 10 µM, the MIC (Staphylococcus aureus) was over 10 µM and the MIC (Cryptococcus neoformans) was over 10 µM. For the same compound, the MIC (Pseudomonas aeruginosa) was over 10 µM and the MIC (Klebsiella pneumoniae) was over 10 µM.
With `Cn1ccc(=Nc2ccc(NC(=O)c3ccc(/N=c4\ccn(C)c5ccc([N+](=O)[O-])cc45)cc3)cc2)cc1` the MIC (Candida albicans) was over 10 µM, the MIC (Acinetobacter baumannii) was over 10 µM and the CC50 (HEK293) was over 10 µM. It also gave an MIC (Escherichia coli) of 10 µM (≈ 5.05 µg/mL), an MIC (Staphylococcus aureus) of 10 µM (≈ 5.05 µg/mL) and an MIC (Cryptococcus neoformans) of 5 µM (≈ 2.52 µg/mL). For the same compound, the MIC (Pseudomonas aeruginosa) was over 10 µM and the MIC (Klebsiella pneumoniae) was over 10 µM.
`COc1ccccc1/C=C/C(=O)/C=C/c1ccccc1O` was tested, and the MIC (Candida albicans) was over 10 µM, the MIC (Acinetobacter baumannii) was over 10 µM and the CC50 (HEK293) was 3.95 µM. It also gave an MIC (Escherichia coli) of over 10 µM, an MIC (Staphylococcus aureus) of over 10 µM and an MIC (Cryptococcus neoformans) of over 10 µM. The MIC (Pseudomonas aeruginosa) was over 10 µM and the MIC (Klebsiella pneumoniae) was over 10 µM.
`Cc1cc(N)c2cc(NC(=O)/C=C\c3ccccc3Cl)ccc2n1` gave an MIC (Candida albicans) of over 10 µM, an MIC (Acinetobacter baumannii) of over 10 µM and a CC50 (HEK293) of 2.78 µM. For the same compound, the MIC (Escherichia coli) was over 10 µM, the MIC (Staphylococcus aureus) was 10 µM (≈ 3.38 µg/mL) and the MIC (Cryptococcus neoformans) was 5 µM (≈ 1.69 µg/mL). It also gave an MIC (Pseudomonas aeruginosa) of over 10 µM and an MIC (Klebsiella pneumoniae) of over 10 µM.
Compound `Cc1ccccc1NC(=O)NCCN1CC1` has an MIC (Candida albicans) of over 10 µM, an MIC (Acinetobacter baumannii) of over 10 µM and a CC50 (HEK293) of over 10 µM. For the same compound, the MIC (Escherichia coli) was over 10 µM, the MIC (Staphylococcus aureus) was over 10 µM and the MIC (Cryptococcus neoformans) was over 10 µM. It also gave an MIC (Pseudomonas aeruginosa) of over 10 µM and an MIC (Klebsiella pneumoniae) of over 10 µM.
`CO[C@@]12[C@H](COC(N)=O)C3=C(C(=O)C(C)=C(N)C3=O)N1C[C@@H]1N[C@@H]12` [MITOMYCIN] gave an MIC (Candida albicans) of over 10 µM, an MIC (Acinetobacter baumannii) of 5 µM (≈ 1.67 µg/mL) and a CC50 (HEK293) of 9.02 µM. It also gave an MIC (Escherichia coli) of 1.25 µM (≈ 0.418 µg/mL), an MIC (Staphylococcus aureus) of 0.156 µM (≈ 0.0523 µg/mL) and an MIC (Cryptococcus neoformans) of over 10 µM. The MIC (Pseudomonas aeruginosa) was 10 µM (≈ 3.34 µg/mL) and the MIC (Klebsiella pneumoniae) was over 10 µM.
In the case of `COC(=O)C1C(O)C(C)C(O)C(C)/C=C\C=C(/C)C(=O)Nc2c(C)c(OC(C)=O)c3c(c2O)C(=O)C(C)=C2OCOC(=C23)/C(C)=C/C(C)(O)C(O)C(C)C1O` (stereo unspecified), the MIC (Candida albicans) is reported as over 10 µM, the MIC (Acinetobacter baumannii) is reported as over 10 µM and the CC50 (HEK293) is reported as 9.11 µM. It also gave an MIC (Escherichia coli) of over 10 µM, an MIC (Staphylococcus aureus) of 1.25 µM (≈ 0.962 µg/mL) and an MIC (Cryptococcus neoformans) of over 10 µM. For the same compound, the MIC (Pseudomonas aeruginosa) was over 10 µM and the MIC (Klebsiella pneumoniae) was over 10 µM.
Compound `O=[N+]([O-])c1ccc(/C=[N+](\[O-])CCO)o1` has an MIC (Candida albicans) of over 10 µM, an MIC (Acinetobacter baumannii) of over 10 µM and a CC50 (HEK293) of over 10 µM. The MIC (Escherichia coli) was 10 µM (≈ 2 µg/mL), the MIC (Staphylococcus aureus) was over 10 µM and the MIC (Cryptococcus neoformans) was over 10 µM. The MIC (Pseudomonas aeruginosa) was over 10 µM and the MIC (Klebsiella pneumoniae) was over 10 µM.
